According to BindingDB's records for doi:10.1007/s00044-011-9938-0 (n/a, 2012):

Each molecule was assayed against Alpha-glucosidase MAL62 (Saccharomyces cerevisiae, UniProt P07265) (assay: Inhibition of baker's yeast alpha-glucosidase using p-nitrophenyl-alpha-D-glucopyranoside as substrate by spectrophotometry).
Alpha-glucosidase MAL62, sequence (P07265 whole entry): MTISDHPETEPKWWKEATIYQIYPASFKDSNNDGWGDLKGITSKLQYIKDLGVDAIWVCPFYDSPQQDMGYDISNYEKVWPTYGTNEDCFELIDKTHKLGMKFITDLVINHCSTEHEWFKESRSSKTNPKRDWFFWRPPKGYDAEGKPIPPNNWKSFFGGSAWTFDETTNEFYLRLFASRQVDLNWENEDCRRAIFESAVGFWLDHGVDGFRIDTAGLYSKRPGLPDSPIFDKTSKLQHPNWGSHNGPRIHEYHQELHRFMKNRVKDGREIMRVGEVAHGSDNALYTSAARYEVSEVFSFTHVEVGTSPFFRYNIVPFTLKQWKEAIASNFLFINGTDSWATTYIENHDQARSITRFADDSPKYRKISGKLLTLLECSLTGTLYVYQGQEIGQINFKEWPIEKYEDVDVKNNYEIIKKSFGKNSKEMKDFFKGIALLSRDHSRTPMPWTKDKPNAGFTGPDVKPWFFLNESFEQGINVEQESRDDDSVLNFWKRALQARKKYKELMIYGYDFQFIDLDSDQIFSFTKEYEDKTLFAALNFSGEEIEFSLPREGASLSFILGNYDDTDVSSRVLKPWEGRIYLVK

Structure (SMILES) | IC50 [µM]
CC1(C)C=Cc2cc(C(=O)/C=C/c3ccc(O)c(O)c3)c(O)cc2O1 | 19.1
O=c1c(-c2ccc(O)cc2)coc2cc(O)cc(O)c12 [Prunetol] | 7
O=c1cc(O)cc2oc(-c3ccc(O)c(O)c3)c(O)cc1-2 | 4
OC[C@H]1OC(OC2=C(c3cc(O)c(O)c(O)c3)Oc3cc(O)cc(O)c3C2)[C@@H](O)[C@@H](O)[C@@H]1O (stereo partly drawn) | 30
O=c1c(-c2ccc(O)cc2)coc2cc(O)ccc12 | 14
O=C(O)c1cc(O)c(O)c(O)c1 [Gallic Acid, F] | 5.2
CC1(C)C=Cc2cc(C(=O)/C=C/c3ccc(O)cc3)c(O)cc2O1 [4-HYDROXYISOLONCHOCARPIN] | 12.3
O=C(O)/C=C/c1ccc(F)cc1 | 270
C=C(C)C(CCC(C)(C)O)Cc1c(O)cc(OC)c2c1OC(c1ccc(O)cc1O)CC2=O (stereo not drawn) | 179
C=C(C)C(CC=C(C)C)Cc1c(O)cc(OC)c2c1OC(c1ccc(OC)cc1O)CC2=O (stereo not drawn) | 155
O=c1c(O)c(-c2ccc(O)c(O)c2)oc2cc(O)ccc12 [2-(3,4-dihydroxyphenyl)-3,7-dihydroxy-chromen-4-one] | 13
O=c1c(O)c(-c2cc(O)c(O)c(O)c2)oc2cc(O)cc(O)c12 | 5
O=c1cc(-c2ccc(O)c(O)c2)oc2cc(O)cc(O)c12 [2-(3,4-dihydroxyphenyl)-5,7-dihydroxy-4H-chromen-4-one] | 21
O=C(O)/C=C/c1ccc(Oc2ccccc2)cc1 | 440
O=C(O)/C=C/c1ccc(Cl)cc1 [CHEBI:61116] | 390
O=C(O[C@@H]1Cc2c(O)cc(O)cc2O[C@@H]1c1cc(O)c(O)c(O)c1)c1cc(O)c(O)c(O)c1 [epigallocatechin gallate] | 2
Oc1cc(O)c2c(c1)O[C@H](c1cc(O)c(O)c(O)c1)[C@H](O)C2 [CHEBI:71224] | 75
O=c1c(O)c(-c2ccc(O)cc2)oc2cc(O)cc(O)c12 | 12
C=CC(C)(C)c1c(O)cc(O)c2c(=O)c3oc4c(CC=C(C)C)c(O)c(OCC=C(C)C)cc4c3oc12 | 33.3
O=C(O)/C=C/c1ccc(O)cc1 [p-Coumaric Acid] | 200
CCOC(=O)/C=C/c1ccc(OC)cc1 [4-Methoxy Ethyl Cinnamate] | 50
Oc1cc(O)c2c(c1)O[C@H](c1ccc(O)c(O)c1)[C@@H](O)C2 [CHEBI:23053] | 130
O=C(O)/C=C/c1cccc(O)c1 [(2E)-3-(3-hydroxyphenyl)prop-2-enoic acid] | 1270
COc1cccc(/C=C/C(=O)O)c1 | 579
COc1ccc(/C=C/C(=O)O)cc1 [3-(4-methoxyphenyl)acrylic acid] | 40
O=C1C[C@@H](c2ccc(O)cc2)Oc2cc(O)cc(O)c21 | 75
O=c1c(O)c(-c2ccc(O)c(O)c2)oc2cc(O)cc(O)c12 [2-(3,4-dihydroxyphenyl)-3,5,7-trihydroxy-chromone;hydrate] | 7
OC[C@H]1OC(OC2=C(c3ccc(O)c(O)c3)Oc3cc(O)cc(O)c3C2)[C@@H](O)[C@@H](O)[C@@H]1O (stereo partly drawn) | 20
C=CC(C)(C)c1c(O)cc(O)c2c(=O)c3oc4c5c(c(OCC=C(C)C)cc4c3oc12)OC(C)(C)C=C5 | 27.6

Now from value to molecule:

IC50 [µM] | Structure (SMILES)
10.6 | C=CC(C)(C)c1cc2c(cc1O)OC(c1cc(O)c(O)c(CC=C(C)C)c1C/C=C\C)CC2 (stereo not drawn)
3.6 | C=CC(C)(C)c1c(O)cc(O)c2c(=O)c(O)c(-c3cc(O)c(O)c(CC=C(C)C)c3)oc12 [2-[3,4-Dihydroxy-5-(3-methyl-but-2-enyl)-phenyl]-8-(1,1-dimethyl-allyl)-3,5,7-trihydroxy-chromen-4-one]
11.1 | CC(C)=CCc1cc(C(=O)/C=C/c2ccc(O)cc2)c(O)cc1O [BROUSSOCHALCONE B]
75.7 | CC(C)=CCc1cc(C2CCc3ccc(O)cc3O2)cc(O)c1O (stereo not drawn) [5-(7-Hydroxy-chroman-2-yl)-3-(3-methyl-but-2-enyl)-benzene-1,2-diol]
37 | C=C(C)C(CC=C(C)C)Cc1c(O)cc(O)c2c1OC(c1ccc(O)cc1O)CC2=O (stereo not drawn)
40 | O=c1c(O)c(-c2ccc(O)cc2O)oc2cc(O)cc(O)c12 [2-(2,4-dihydroxyphenyl)-3,5,7-trihydroxychromen-4-one]
358 | COc1cc(O)c(C(C)=C(C)C)c2c1C(=O)CC(c1ccc(O)cc1)O2 (stereo not drawn)
68.1 | C=C(C)C(CC=C(C)C)Cc1c(O)cc(OC)c2c1OC(c1ccc(O)cc1O)CC2=O (stereo not drawn)
45 | C=C(C)C(CC=C(C)C)Cc1c(O)cc(O)c2c1OC(c1ccccc1O)CC2=O (stereo not drawn)
150 | COc1ccc([C@@H]2CC(=O)c3c(O)cc(O)cc3O2)cc1O [(2S)-5,7-dihydroxy-2-(3-hydroxy-4-methoxyphenyl)-3,4-dihydro-2H-1-benzopyran-4-one]
26.3 | CC(C)=CCc1c(C2CCc3ccc(O)cc3O2)cc2c(c1O)OC(C)(C)C=C2 (stereo not drawn)
12 | CC(C)=CCc1cc(C2CCc3ccc(O)cc3O2)c(CC=C(C)C)c(O)c1O (stereo not drawn)
5.3 | CC(C)=CCc1cc(C(=O)/C=C/c2ccc(O)c(O)c2)c(O)cc1O [broussochalcone A]
2.1 | CC(C)=CCc1cc(-c2oc3cc(O)c(CC=C(C)C)c(O)c3c(=O)c2O)cc(O)c1O [CHEBI:66727]
